Laboratory results reported in patent US20210388012A1, “METHODS AND COMPOSITIONS FOR PRODRUG FORMS OF SPECTINOMYCIN AND SPECTINAMIDE ANALOGS” (priority 2018, published 2021).

Columns and labels:
[1] = system: M. tuberculosis Erdman (TMCC107); assay: Murine model of acute TB infection; type: in vivo; conditions: BALB/c mice, subcutaneous injection 400 mg/kg daily, 12 consecutive days
[2] = Single ascending maximum tolerated dose study in rat; type: in vivo; conditions: female Sprague-Dawley rats, 5 second IV bolus
Protocol: Several compounds were assessed in single ascending maximum tolerated studies. The compounds assessed were 1810; 3408, a prodrug form of compound 1810; 1599, a chloro homologue of compound 1810; and gentamicin, an antimicrobial associated with ototoxicity. The study was carried out in female Sprague-Dawley rats (n=3 per group). All the drug solutions were prepared in water and PLASMA-LYTE A (50:50; […] was obtained from Baxter Healthcare Corporation, Deerfield, Ill.). Each group of rats were fasted overnight with access to water aJ libitum and a fixed volume (2 mL) of drug-containing solution was administered via the jugular vein catheter. Food was withheld for 3 h post dosing. Different phases of the study were classified on five different speeds of i.v, administration; Phase 1: 5 sec, Phase 2: 30 sec, Phase 3: 5 min, Phase 4: 15 min, Phase 5: 30 min. In the first and second phases, a set of predefined dose levels: 10, 25, 50, 75, 100, 150, 300, 350, 400, 450 and 500 mg/kg. Escalation to the next higher dose was conditional upon absence of signs of acute toxicity following the immediate lower dose over a 24 h period. All animals were monitored by visual inspection focused on focus on changes in skin, fur, eyes, and also respiratory, circulatory, autonomic and central nervous systems, along with somatomotor activity and behavior pattern, including tremors, convulsions, salivation, diarrhea, lethargy, sleep and coma. A dose level was deemed an MTD if […] of acute toxicity were observed and that dose was chosen for the second phase of the study where the process was repeated to determine a toxic dose. For third, fourth and fifth phases, dosing solution was infused by a Instech tethering system (Instech Laboratories Inc., Plymouth Meeting, Pa.) where the animal is freely moving within its cage, the catheter connection is held in place by a vascular access harness and a swivel system, and the drug administration is performed via a Harvard Apparatus programmable syringe pump. After dosing, the tether was removed immediately after completion of the infusion and the catheter was flushed with (100 μL) PlasmaLyte A. Surviving animals from the previous dose with no signs of toxicity were re-used in either phases of these studies upon allowing a one day drug washout period.

[3] = in vitro; type: in vitro ADME; conditions: human plasma, 37° C., read-out: Plasma Stability (Human) t½ (converted)
Protocol: LC-MS Method 2. Chromatographic separation was performed on an Acquity UPLC BEH C18 1.7 μm, 2.1×50 mm column (Waters Corporation, Milford, Mass.) or a Luna Omega 1.6 μm C18, 2.1×50 mm column (Phenomenex, Torrance, Calif.) using an Acquity ultra performance liquid chromatography system. Data were acquired using Masslynx v. 4.1 and analyzed using the Openlynx software suite. This was coupled to an Acquity photodiode array detector, which acquired UV data from 210-400 nm. The flow was then split, with half directed to an evaporative light scattering detector (ELSD) and half to an SQ mass spectrometer. The total flow rate was 1 mL/min. The sample injection volume was 10 μL. The UPLC column was maintained at 60° C. and the gradient program with either basic mobile phase (A1, 10 mM ammonium bicarbonate in MilliQ H2O; B1, 0.1% formic acid in acetonitrile) or formic mobile phase (A1, 0.1% formic acid in MilliQ H2O; B1, 0.1% formic acid in acetonitrile) based on the compounds' physical and chemical properties. The mass spectrometer was operated in positive-ion mode with electrospray ionization. The conditions were as follows; capillary voltage 3.4 kV, cone voltage 30 V, source temperature 130° C., desolvation temperature 400° C., desolvation gas 800 L/hr, cone gas 100 L/hr. A full scan range from m/z=110-1000 in 0.2 s was used to acquire MS data. The ELSD-drift tube temperature was set at 52° C.
Plasma stability was determined after incubation in human plasma for various incubation time, i.e., incubation times of 0, 3, 24, and 48 hour were used. DMSO stock solutions of test compounds were prepared at 10 mM concentration. 1.8 μL of each test compound was each added directly to 1.8 mL of human plasma to get the final concentration of 10 μM. This compound/matrix was mixed and 70 μL was transferred to 4 time points plates (each in triplicate wells). […] The plasma stability was evaluated via the half-life from least-squares fit of the multiple time points based on first-order kinetics.

[4] = target: Mycobacterium smegmatis 70S bacterial ribosomes; assay: Ribosomal inhibition assay (luciferase-based protein synthesis inhibition); type: biochemical; conditions: purified M. smegmatis 70S ribosomes, firefly luciferase mRNA
Protocol: In vitro activity was also assessed using a ribosomal inhibition assay. Briefly, luciferase-based protein synthesis inhibition assays were performed in translation reaction as described previously (Bruell, et al. Biochemistry. 2008 47 (34), 8828-8839), using purified Mycobacterium smegmatis 70S bacterial ribosomes and firefly luciferase mRNA prepared in vitro using T7 RNA polymerase. IC50 values represent the drug concentration that inhibits luciferase activity by 50%.

CN[C@@H]1[C@H](O)[C@H](NC)[C@H]2O[C@]3(O)[C@H](O[C@@H]2[C@H]1O)O[C@H](C)C[C@H]3NC(=O)Cc1ccc(OP(=O)(O)O)cn1 [Compound 3408, 6-(2-oxo-2-(((2R,4R,4a5,5aR,6S,7S,8R,9S,9aR,10aS)-4a,7,9-trihydroxy-2-methyl-6,8-bis(methylamino)decahydro-2H-benzo[b]pyrano[2,3-e][1,4]dioxin-4-yl)amino)ethyl)pyridin-3-yl dihydrogen phosphate]
Efficacy in mouse model of acute tuberculosis infection (lung CFU, FIG. 1) [1]: similarly active | MTD [2]: >500 mg/kg | MTD at 24 h ([2]; female, Sprague-Dawley, rat, in vivo, iv, read-out: MTD): > 500 mg/kg | half-life at 10 µM [3]: < 5 min | IC50 (M. smegmatis) [4]: 6.70 µg/mL
